Measured values from patent US7335673B2, “2,3-Diphenylpropionic acid derivatives or their salts, medicines or cell adhesion inhibitors containing the same, and their usage” (Kaken Pharmaceutical Co., Ltd., priority 2001, dated 2008).

What was measured:
[1] = VLA-4/VCAM-1 cell adhesion inhibition test; type: cell-based; conditions: Homo sapiens; adhesion of BCECF-labeled HL-60 cells to VCAM-1-expressing CHO cells; read-out: 50% Inhibition Concentration
Description: VCAM-1-expressing CHO cells were placed in a 96-well cuture plate in an amount of 7×10^3 cells/well, and were cultured in Ham's F-12 medium containing 10 vol % fetal calf serum (FCS) for 3 days until a confluent state was satisfied. HL-60 cells were re-flotated in Hanks' solution containing 0.4 wt % bovine serum albumin (BSA), and fluorescence-labeled by adding 5 μM of 2′,7′-bis(carboxyethyl)-5(6)-carboxy fluorescein pentaacetoxymethyl ester (BCECF-AM). […]
Thus-pretreated HL-60 cells were then stratified in an amount of 2×10^5 cells/well in each well containing the cultured VCAM-1-expressing CHO cells, and allowed to adhere at 37° C. for 5 minutes. […] The cells were washed, destroyed by adding PBS containing 1 vol % NP-40, and fluorescence intensity of the obtained supernatant was measured using a fluorescence measurement system (Millipore, Model cyto Fluor 2300).
Blank experiment was based on fluorescence intensity of PBS containing 1 vol % NP-40. Standard experiment was carried out using the fluorescence-labeled HL-60 suspensions having a concentration of 2×10^5, 10^5, 2×10^4 and 10^4 cells/mL, respectively, where the suspensions were added to PBS containing 1 vol % NP-40, the cells were destroyed, and the fluorescence intensities of the obtained supernatant were measured. […]

LPAM-1/VCAM-1 adhesion = LPAM-1/VCAM-1 adhesion inhibition test

Structure (SMILES) | IC50 [1] | inhibition activity in LPAM-1/VCAM-1 adhesion inhibition test (LPAM-1/VCAM-1 adhesion)
CC(C)CNc1cccc(C(Cc2ccc(NC(=O)c3c(Cl)cccc3Cl)cc2)C(=O)O)c1 (stereo not drawn) [Example 27] | 6 µM | 
COc1ccc(C(Cc2ccc(-c3c(OC)cccc3OC)cc2)C(=O)O)cc1N(CC(C)C)C(=O)C(C)(C)C (stereo not drawn) [Example 106] | 4.1 µM | showed the inhibition activity
